We go through 23 compounds from US4902622A, “Novel α-1,6-glucosidase and process for producing the same” (Amano Pharmaceutical Co., Ltd., priority 1986, dated 1990).

What all share (type): biochemical, Bacillus sectorramus
Test [1] has as its system α-1,6-glucosidase. Nature of the test: Influence of metal salt on enzyme activity. Particulars: for Remaining activity (%): 50 mM acetic acid buffer (pH 4.5), 30 minutes at 40° C., final concentration of metal salt 5 mM; for Influence of metal salts: metal salt 5 mM. Here is the method:
(§1) 8. Assay of activity: 4 ml of 0.5% pullulan solution (pH 4.5) was added to 1 ml of an enzyme solution, and the reaction was carried out for 30 minutes at 40° C. Then, 2 ml of Somogyi solution was added, the mixture was heated for 20 minutes and then cooled. After cooling, 1 ml of ammonium arsenomolybdenate was added, and water was added to a total volume of 25 ml. Absorbance of this solution was measured at 500 nm, with a layer thickness of 1 cm. Under these conditions, the activity was defined as one unit when reducing sugar corresponding to 1 μmol of glucose was produced per minute.
10. […] Influences of various metal salts are shown in Table 5, indicating the remaining activity after treatment in a 50 mM acetic acid buffer (pH 4.5) for 30 minutes at 40° C., with a final concentration of metal salt of 5 mM.

For test [2], the system named is α-1,6-glucosidase. Put plainly: Influence of inhibitor on enzyme activity. As for the experimental part: as §1
The subject of test [3] is α-1,6-glucosidase. Put plainly: Km value and Vmax to substrates. Particulars: substrate of the purified enzyme.
From the text: After the cultivation period, the cells were removed from the culture broth, and the supernatant fraction thus obtained was concentrated to obtain a preparation of crude pullulanase. This preparation was fractionated with ammonium sulfate, then subjected to affinity chromatography with γ-cyclodextrin-cephalose 6B (produced by coupling γ-cyclodextrin to activated Sepharose 6B (trade mark, Pharmacia Fine Chemical Co.)) and purified to a single band by electrophoresis utilizing SDS-polyacrylamide gel. The following explains the enzymochemical properties of the α-1,6-glucosidase thus purified.
2. Km value and Vmax to substrates: The Km value (mg/ml) and Vmax value (μmol/min/mg protein) of the enzyme to pullulan, potato amylopectin, and corn amylopectin are as shown in Table 2:
as §1

The test system of test [4] is α-1,6-glucosidase. Put plainly: Relative activity to polysaccharides (substrate specificity). The following applies: activity of the enzyme on the polysaccharide, pullulan = 100. Here is the method:
3. Relative activity to polysaccharides: Table 3 compares the relative activity of the enzyme on pullulan to relative activity on soluble maize amylopectin, soluble starch, oyster glycogen, hare glycogen, maize amylopectin, and potato amylopectin.
as §1

[5] abbreviates: 50 mM acetic acid buffer (pH 4.5), 30 minutes at 40° C., final concentration of inhibitor 1 mM.

Entries after “also recorded” stand apart in the source; their conditions may differ.

For the compound `Cl.Cl.[Ag]` [AgCl2], the “Remaining activity (%)” value with α-1,6-glucosidase [1] stood at 2.7%. The “Influence of metal salts” value with α-1,6-glucosidase [1] (listed as Ag^2+) is “deactivated; also recorded: losses activity”. With `[Ba+2].[Cl-].[Cl-]` [BaCl2], in the test with α-1,6-glucosidase [1], the “Remaining activity (%)” value is reported as 98.9% and the “Influence of metal salts” value is recorded as “negligibly affected”. For `[Ca+2].[Cl-].[Cl-]` [CaCl2], the “Remaining activity (%)” value in the test on α-1,6-glucosidase [1] was found to be 79.1%. Consider `O.O.O.O.O.[Cd+2].[Cd+2].[Cl-].[Cl-].[Cl-].[Cl-]` [CdCl2.21/2H2 O], for which, in the test on α-1,6-glucosidase [1], the “Remaining activity (%)” value is 92.4% and the “Influence of metal salts” value was “negligibly affected”. As to `[Cl-].[Cl-].[Co+2]` [CoCl2], the “Remaining activity (%)” value in the test on α-1,6-glucosidase [1] was 87.7%. Same read-out and setting: the figure for `O.O.[Cl][Cu][Cl]` [CuCl2.2H2 O] is 73.4%.

Consider `O=C(O)CN(CCN(CC(=O)O)CC(=O)O)CC(=O)O` [EDTA], for which, in the test with α-1,6-glucosidase [2] (pH 4.5), the “Remaining activity (%)” value was determined as 93.1%. As to `[Cl][Fe][Cl]` [FeCl2.nH2 O], in the test on α-1,6-glucosidase [1], the “Remaining activity (%)” value amounted to 82.1%. On to `[Cl][Fe]([Cl])[Cl]` [FeCl3], for which, in the test on α-1,6-glucosidase [1], the “Remaining activity (%)” value is listed as 57.8% and the “Influence of metal salts” value is reported as “inhibited”. For the compound `[Cl][Hg][Cl]` [HgCl2], the “Remaining activity (%)” value in the test with α-1,6-glucosidase [1] is reported as 0%. For the same compound, the “Influence of metal salts” value in the test with α-1,6-glucosidase [1] (listed as Hg^2+) is reported as “deactivated; also recorded: losses activity”. In the case of `O.O.O.O.O.O.[Cl-].[Cl-].[Mg+2]` [MgCl2.6H2 O], the “Remaining activity (%)” value with α-1,6-glucosidase [1] is recorded as 91.3%. Regarding `O.O.O.O.[Cl][Mn][Cl]` [MnCl2.4H2 O], in the test with α-1,6-glucosidase [1], the “Remaining activity (%)” value turned out to be 85.9% and the “Influence of metal salts” value is “negligibly affected”.

`O=C(O)CI` [Monoiodo-acetic acid]: the “Remaining activity (%)” value in the test with α-1,6-glucosidase [2] (pH 4.5) was determined as 66.5%. `CCN1C(=O)C=CC1=O` [N--ethylmaleimide]: the “Remaining activity (%)” value with α-1,6-glucosidase [2] (setting [5]) was found to be 65.5%. For the compound `O.O.O.O.O.O.[Cl][Ni][Cl]` [NiCl2.6H2 O], in the test on α-1,6-glucosidase [1], the “Remaining activity (%)” value came to 102.7% and the “Influence of metal salts” value is given as “negligibly affected”. Take `O=C(O)c1cc[c]([Hg][Cl])cc1` [PCMB, p-chloromercuribenzoic acid]: the “Remaining activity (%)” value with α-1,6-glucosidase [2] (setting [5]) was determined as 27.1%. Same read-out and setting: the figure for `CCCCCCCCCCCCOS(=O)(=O)[O-].[Na+]` [SDS, sodium dodecylsulfate] is 1.5%. Regarding `O.O.[Cl][Sn][Cl]` [SnCl2.2H2 O], the “Remaining activity (%)” value in the test with α-1,6-glucosidase [1] is given as 82.1%. On to `[Cl-].[Cl-].[Sr+2]` [SrCl2], for which the “Remaining activity (%)” value in the test with α-1,6-glucosidase [1] came to 74.5%. With `[Cl-].[Cl-].[Zn+2]` [ZnCl2], in the test with α-1,6-glucosidase [1], the “Remaining activity (%)” value was determined as 97.3% and the “Influence of metal salts” value is given as “negligibly affected”.

As for `c1cnc2c(c1)ccc1cccnc12` [o-phenanthroline], the “Remaining activity (%)” value in the test with α-1,6-glucosidase [2] (setting [5]) was found to be 109.0%. In the test with α-1,6-glucosidase [2] (inhibitor 1 mM), the “Influence of inhibitor” value was “not and not inhibited”. The Km is the concentration of substrate that gives half-maximal velocity. Turning to Pullulan, in the test on α-1,6-glucosidase [3], the Km was found to be 0.14 mg/mL and the Vmax is 70.0 μmol/min/mg protein. Also, the “Relative activity (%)” value with α-1,6-glucosidase [4] is listed as 100%. As to Soluble starch, the “Relative activity (%)” value with α-1,6-glucosidase [4] is 6.7%.
